Assay results as given in patent EP4741392A1, “1H-PYRAZOLO[4,3-C]PYRIDINE COMPOUND, AND COMPOSITION THEREOF AND USE THEREOF” (Shenzhen TargetRx Co., Ltd., priority 2023, dated 2025).

Experiments:
Experiment in all cases: Kinase activity inhibition assay (HTRF TK Kit), selectivity
Assay type in all cases: biochemical
TEC = target: T1, TEC (Homo sapiens, UniProt P42680)
T1 construct: purchased Carna 08-182
T1 sequence (P42680 1-631): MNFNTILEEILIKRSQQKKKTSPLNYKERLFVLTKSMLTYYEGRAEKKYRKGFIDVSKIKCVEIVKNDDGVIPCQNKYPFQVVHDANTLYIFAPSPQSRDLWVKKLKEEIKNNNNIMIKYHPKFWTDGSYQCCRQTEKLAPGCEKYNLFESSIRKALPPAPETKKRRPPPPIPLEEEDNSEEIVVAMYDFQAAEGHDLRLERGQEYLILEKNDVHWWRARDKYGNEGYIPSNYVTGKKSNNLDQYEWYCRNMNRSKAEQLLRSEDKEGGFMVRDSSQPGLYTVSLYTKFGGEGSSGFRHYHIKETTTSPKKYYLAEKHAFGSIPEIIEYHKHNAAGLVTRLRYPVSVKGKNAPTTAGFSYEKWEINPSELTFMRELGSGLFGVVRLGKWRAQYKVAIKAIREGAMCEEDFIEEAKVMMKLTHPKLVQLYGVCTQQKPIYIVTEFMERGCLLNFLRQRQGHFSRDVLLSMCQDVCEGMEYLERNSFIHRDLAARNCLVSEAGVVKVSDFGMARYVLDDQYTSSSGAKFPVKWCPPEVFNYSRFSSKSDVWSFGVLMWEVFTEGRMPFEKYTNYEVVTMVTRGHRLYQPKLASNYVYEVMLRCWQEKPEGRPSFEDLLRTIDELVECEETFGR
Procedure, shortened: (§1)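 Read-out: 665/620 nm HTRF ratio after 1 h room-temperature detection with streptavidin-XL665 and TK antibody-cryptate. Kinase reactions (compound, substrate/ATP, enzyme, assembled on ice) ran at room temperature beforehand. Inhibition normalised to blank and positive controls, IC50 by variable-slope sigmoidal fit.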

ITK = target: T2, ITK (Homo sapiens, UniProt Q08881)
T2 construct: purchased Carna 08-181
T2 sequence (Q08881 1-620): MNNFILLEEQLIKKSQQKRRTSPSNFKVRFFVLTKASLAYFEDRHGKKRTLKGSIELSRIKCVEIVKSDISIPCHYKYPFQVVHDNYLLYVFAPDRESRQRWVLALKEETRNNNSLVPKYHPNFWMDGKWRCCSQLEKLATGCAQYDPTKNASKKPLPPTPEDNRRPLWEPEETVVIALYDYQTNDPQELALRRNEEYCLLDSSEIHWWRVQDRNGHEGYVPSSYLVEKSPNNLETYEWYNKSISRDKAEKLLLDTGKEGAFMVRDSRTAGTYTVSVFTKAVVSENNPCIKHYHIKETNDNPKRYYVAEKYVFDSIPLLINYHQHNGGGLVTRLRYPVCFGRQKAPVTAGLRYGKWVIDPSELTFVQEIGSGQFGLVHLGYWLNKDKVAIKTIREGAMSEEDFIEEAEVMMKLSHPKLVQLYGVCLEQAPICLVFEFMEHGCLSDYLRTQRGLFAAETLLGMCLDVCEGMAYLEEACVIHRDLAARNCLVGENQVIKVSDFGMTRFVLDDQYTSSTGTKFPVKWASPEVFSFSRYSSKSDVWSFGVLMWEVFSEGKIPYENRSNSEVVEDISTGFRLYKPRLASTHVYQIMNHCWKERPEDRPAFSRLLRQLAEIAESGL
Procedure, shortened: as §1

EGFR = target: T3, EGFR (Homo sapiens, UniProt P00533)
T3 construct: purchased Carna 08-115
Procedure, shortened: as §1

| Compound | IC50 (TEC) | IC50 (ITK) | IC50 (EGFR) |
| --- | --- | --- | --- |
| COc1ccc(F)cc1C(=O)NCc1ccc(-c2ncc(-c3ccc(CN4CCCCC4)cn3)c3[nH]nc(N)c23)cc1 [Example 66, N-(4-(3-amino-7-(5-(piperidin-1-ylmethyl)pyridin-2-yl)-1H-pyrazolo[4,3-c]pyridin-4-yl)benzyl)-5-fluoro-2-methoxybenzamide] | 5 to 50 nM | 50 to 500 nM | 5 to 50 nM |
| COc1ccc(F)cc1C(=O)NCc1ccc(-c2ncc(-c3ncccn3)c3[nH]nc(N)c23)cc1 [Example 17, N-(4-(3-amino-7-(pyrimidin-2-yl)-1H-pyrazolo[4,3-c]pyridin-4-yl)benzyl)-5-fluoro-2-methoxybenzamide] | 5 to 50 nM | > 500 nM | > 500 nM |
| COc1ccc(F)cc1C(=O)NCc1ccc(-c2ncc(-c3ccc(C4COC4)cn3)c3[nH]nc(N)c23)cc1 [Example 43, N-(4-(3-amino-7-(5-(oxetan-3-yl)pyridin-2-yl)-1H-pyrazolo[4,3-c]pyridin-4-yl)benzyl)-5-fluoro-2-methoxybenzamide] | 1 to 5 nM | 50 to 500 nM | 5 to 50 nM |
| COc1ccc(F)cc1C(=O)NCc1ccc(-c2ncc(-c3ccc4c(n3)nc3n4CCOC3)c3[nH]nc(N)c23)cc1 [Example 102, N-(4-(3-amino-7-(6,7-dihydro-9H-pyrido[2',3':4,5]imidazo[2,1-c][1,4]oxazin-2-yl)-1H-pyrazolo[4,3-c]pyridin-4-yl)benzyl)-5-fluoro-2-methoxybenzamide] | > 500 nM | > 500 nM | 50 to 500 nM |
| COc1ccc(F)cc1C(=O)NCc1ccc(-c2ncc(-c3ccn(CC(F)(F)F)n3)c3[nH]nc(N)c23)cc1 [Example 28, N-(4-(3-amino-7-(1-(2,2,2-trifluoroethyl)-1H-pyrazol-3-yl)-1H-pyrazolo[4,3-c]pyridin-4-yl)benzyl)-5-fluoro-2-methoxybenzamide] | 5 to 50 nM | 50 to 500 nM | 5 to 50 nM |
| COc1ccc(F)cc1C(=O)NCc1ccc(-c2ncc(-c3ccc(C(C)(C)O)cn3)c3[nH]nc(N)c23)cc1 [Example 65, N-(4-(3-amino-7-(5-(2-hydroxypropan-2-yl)pyridin-2-yl)-1H-pyrazolo[4,3-c]pyridin-4-yl)benzyl)-5-fluoro-2-methoxybenzamide] | 1 to 5 nM | 50 to 500 nM | 5 to 50 nM |
| COc1ccc(F)cc1C(=O)NCc1ccc(-c2ncc(-c3ccc(OCCN4CCOCC4)cn3)c3[nH]nc(N)c23)cc1 [Example 61, N-(4-(3-amino-7-(5-(2-morpholinoethoxy)pyridin-2-yl)-1H-pyrazolo[4,3-c]pyridin-4-yl)benzyl)-5-fluoro-2-methoxybenzamide] | 5 to 50 nM | 50 to 500 nM | 5 to 50 nM |
| N-(4-(3-amino-7-(1-(difluoromethyl)-1H-pyrazol-3-yl)-1H-pyrazolo[4,3-c]pyridin-4-yl)benzyl)-5-fluoro-2-methoxybenzamide [Example 29] | 5 to 50 nM | 50 to 500 nM | 5 to 50 nM |
| COc1ccc(F)cc1C(=O)NCc1ccc(-c2ncc(-c3ccc(S(C)(=O)=O)cn3)c3[nH]nc(N)c23)cc1 [Example 35, N-(4-(3-amino-7-(5-(methylsulfonyl)pyridin-2-yl)-1H-pyrazolo[4,3-c]pyridin-4-yl)benzyl)-5-fluoro-2-methoxybenzamide] | 5 to 50 nM | 50 to 500 nM | 50 to 500 nM |
| COc1ccc(F)cc1C(=O)NCc1ccc(-c2ncc(-c3ncc(C)cn3)c3[nH]nc(N)c23)cc1 [Example 39, N-(4-(3-amino-7-(5-methylpyrimidin-2-yl)-1H-pyrazolo[4,3-c]pyridin-4-yl)benzyl)-5-fluoro-2-methoxybenzamide] | 5 to 50 nM | 50 to 500 nM | 50 to 500 nM |
| COc1ccc(F)cc1C(=O)NCc1ccc(-c2ncc(-c3ccn4nccc4n3)c3[nH]nc(N)c23)cc1 [Example 46, N-(4-(3-amino-7-(pyrazolo[1,5-a]pyrimidin-5-yl)-1H-pyrazolo[4,3-c]pyridin-4-yl)benzyl)-5-fluoro-2-methoxybenzamide] | 5 to 50 nM | > 500 nM | 5 to 50 nM |
| COc1ccc(F)cc1C(=O)NCc1ccc(-c2ncc(-c3nccn4nccc34)c3[nH]nc(N)c23)cc1 [Example 98, N-(4-(3-amino-7-(pyrazolo[1,5-a]pyrazin-4-yl)-1H-pyrazolo[4,3-c]pyridin-4-yl)benzyl)-5-fluoro-2-methoxybenzamide] | 5 to 50 nM | > 500 nM | 50 to 500 nM |
| COc1ccc(F)cc1C(=O)NCc1ccc(-c2ncc(-c3ccc(C(=O)N4C[C@@H](C)O[C@H](C)C4)cn3)c3[nH]nc(N)c23)cc1 [Example 54, N-(4-(3-amino-7-(5-((2R,6R)-2,6-dimethylmoroholine-4-carbonyl)pyridin-2-yl)-1H-pyrazolo[4,3-c]pyridin-4-yl)benzyl)-5-fluoro-2-methoxybenzamide] | 5 to 50 nM | 50 to 500 nM | 50 to 500 nM |
| COc1ccc(F)cc1C(=O)NCc1ccc(-c2ncc(-c3ccc4cn[nH]c4n3)c3[nH]nc(N)c23)cc1 [Example 47, N-(4-(3-amino-7-(1H-pyrazolo[3,4-b]pyridin-6-yl)-1H-pyrazolo[4,3-c]pyridin-4-yl)benzyl)-5-fluoro-2-methoxybenzamide] | 5 to 50 nM | > 500 nM | 50 to 500 nM |
| COc1ccc(F)cc1C(=O)NCc1ccc(-c2ncc(-c3cc(NC(=O)C4CC4)ccn3)c3[nH]nc(N)c23)cc1 [Example 80, N-(4-(3-amino-7-(4-(cyclopropaneformamido)pyridin-2-yl)-1H-pyrazolo[4,3-c]pyridin-4-yl)benzyl)-5-fluoro-2-methoxybenzamide] | 5 to 50 nM | > 500 nM | 50 to 500 nM |
| COc1ccc(F)cc1C(=O)NCc1ccc(-c2ncc(-c3ccc(N4CCOCC4)cn3)c3[nH]nc(N)c23)cc1 [Example 76, N-(4-(3-amino-7-(5-morpholinopyridin-2-yl)-1H-pyrazolo[4,3-c]pyridin-4-yl)benzyl)-5-fluoro-2-methoxybenzamide] | 1 to 5 nM | 50 to 500 nM | 5 to 50 nM |
| COc1ccc(F)cc1C(=O)NCc1ccc(-c2ncc(-c3ccc(F)cn3)c3[nH]nc(N)c23)c(F)c1 [Example 82, N-(4-(3-amino-7-(5-fluoropyridin-2-yl)-1H-pyrazolo[4,3-c]pyridin-4-yl)-3-fluorobenzyl)-5-fluoro-2-methoxybenzamide] | 50 to 500 nM | > 500 nM | > 500 nM |
| COc1ccc(F)cc1C(=O)NCc1ccc(-c2ncc(-c3ccc(P(C)(C)=O)cn3)c3[nH]nc(N)c23)cc1 [Example 56, N-(4-(3-amino-7-(5-(dimethylphosphoryl)pyridin-2-yl)-1H-pyrazolo[4,3-c]pyridin-4-yl)benzyl)-5-fluoro-2-methoxybenzamide] | 5 to 50 nM | 50 to 500 nM | 50 to 500 nM |
| COc1ccc(F)cc1C(=O)NCc1ccc(-c2ncc(-c3ccc(N4CCN(C)C[C@H]4C)cn3)c3[nH]nc(N)c23)cc1 [Example 75, (R)-N-(-4-(3-amino-7-(5-(2,4-dimethylpiperazin-1-yl)pyridin-2-yl) 1H-pyrazolo[4,3-c]pyridin-4-yl)benzyl)-5-fluoro-2-methoxybenzamide] | 5 to 50 nM | 5 to 50 nM | 5 to 50 nM |
| COc1ccc(F)cc1C(=O)NCc1ccc(-c2nc(C(C)C(F)(F)F)c(-c3ccn(C)n3)c3[nH]nc(N)c23)cc1 (single isomer, unassigned) [Example 6-2, N-(4-(3-amino-7-(1-methyl-1H-pyrazol-3-yl)-6-(1,1,1-trifluoropropan-2-yl)-1H-pyrazolo[4,3-c]pyridin-4-yl)benzyl)-5-fluoro-2-methoxybenzamide] | 5 to 50 nM | > 500 nM | 50 to 500 nM |
